Experimental data reported in patent publication US20130023532A1, “INDAZOLYL-PYRIMIDINES AS KINASE INHIBITORS” (priority 2010, published 2013).
Counter-ions that a name gives are not always drawn.

Biological target: T1, RIPK2 (Homo sapiens, UniProt O43353)
T1 construct: Full length FLAG His tagged RIPK2 was purified from a Baculovirus expression system; FLAG (N); 6His (N); made in house; host or cells: Spodoptera frugiperda (Sf9) insect cells, baculovirus
Assay: Fluorescent polarization based binding assay at the ATP binding pocket of RIPK2
Details: FP competition with fluorescently labeled ATP competitive ligand (5 nM); full length FLAG His tagged RIPK2; mean of a minimum of 2 experiments; read-out: mean pIC50 (converted)
Description: A fluorescent polarization based binding assay was developed to quantitate interaction of novel test compounds at the ATP binding pocket of RIPK2, by competition with a fluorescently labeled ATP competitive ligand. Full length FLAG His tagged RIPK2 was purified from a Baculovirus expression system and was used at a final assay concentration of twice the KDapparent. A fluorescent labeled ligand (5-({[2-({[3-({4-[(5-hydroxy-2-methylphenyl)amino]-2-pyrimidinyl}amino)phenyl]carbonyl}amino)ethyl]amino}carbonyl)-2-(6-hydroxy-3-oxo-3H-xanthen-9-yl)benzoic acid, prepared as described below) was used at a final assay concentration of 5 nM. Both the enzyme and ligand were prepared in solutions in 50 mM HEPES pH7.5, 150 mM NaCl, 10 mM MgCl2, 1 mM DTT, and 1 mM CHAPS. Test compounds were prepared in 100% DMSO and 100 nL was dispensed to individual wells of a multiwell plate. Next, 5 ul RIPK2 was added to the test compounds at twice the final assay concentration, and incubated at room temperature for 10 minutes. […] Finally, samples were read on an instrument capable of measuring fluorescent polarization. Test compound inhibition was expressed as percent (%) inhibition of internal assay controls.
For concentration response experiments, normalized data were fit and pIC50 s determined using conventional techniques. […]

T1 sequence (O43353 whole entry): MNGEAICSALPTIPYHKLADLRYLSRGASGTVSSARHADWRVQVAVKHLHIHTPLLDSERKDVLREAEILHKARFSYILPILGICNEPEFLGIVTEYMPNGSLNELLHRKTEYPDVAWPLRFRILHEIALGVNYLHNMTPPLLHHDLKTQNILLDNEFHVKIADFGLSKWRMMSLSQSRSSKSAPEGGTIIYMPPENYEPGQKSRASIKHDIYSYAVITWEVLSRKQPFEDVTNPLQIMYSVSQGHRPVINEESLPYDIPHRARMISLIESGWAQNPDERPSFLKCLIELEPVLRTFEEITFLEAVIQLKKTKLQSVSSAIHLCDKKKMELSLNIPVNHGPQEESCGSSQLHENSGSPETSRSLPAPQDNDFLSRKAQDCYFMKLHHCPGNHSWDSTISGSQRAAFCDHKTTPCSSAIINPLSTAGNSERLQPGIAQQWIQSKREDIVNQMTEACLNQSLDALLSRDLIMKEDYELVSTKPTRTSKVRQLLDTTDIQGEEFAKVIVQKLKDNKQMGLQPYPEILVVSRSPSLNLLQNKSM

| Structure (SMILES) | IC50 [nM] |
| --- | --- |
| COc1ccc2[nH]nc(Nc3ccnc(Nc4cc(OC)c(OC)c(OC)c4)n3)c2c1 [Example 12, N^4-[5-(methyloxy)-1H-indazol-3-yl]-N^2-[3,4,5-tris(methyloxy)phenyl]-2,4-pyrimidinediamine] | 7.94 |
| COc1ccc2[nH]nc(Nc3ccnc(Nc4ccc(F)c(S(C)(=O)=O)c4)n3)c2c1 [Example 27, N^2-[4-fluoro-3-(methylsulfonyl)phenyl]-N^4-[5-(methyloxy)-1H-indazol-3-yl]-2,4-pyrimidinediamine trifluoroacetate] | 50.1 |
